Experimental data reported in patent publication US10681909B2, “Herbicidal triazoles” (FMC Corporation, priority 2014, dated 2020).

Experiments:
pigweed [1] = assay: Test A preemergence; type: in vivo, Amaranthus retroflexus; conditions: 0 to 100 scale (0 no effect, 100 complete control)
Source text: (§1) Seeds of plant species selected from barnyardgrass (Echinochloa crus-galli), crabgrass, large (large crabgrass, Digitaria sanguinalis), kochia (Kochia scoparia), ragweed (common ragweed, Ambrosia elatior), foxtail, giant (giant foxtail, Setaria faberii), morningglory (Ipomoea spp.), pigweed (Amaranthus retroflexus), velvetleaf (Abutilon theophrasti), ryegrass, Italian (Italian ryegrass, Lolium multiflorum), wheat (Triticum aestivum), and corn (Zea mays) were planted into a blend of loam soil and sand and treated preemergence with a directed soil spray using test chemicals formulated in a non-phytotoxic solvent mixture which included a surfactant. At the same time, plants selected from these crop and weed species and also blackgrass (Alopecurus myosuroides), and galium (catchweed bedstraw, Galium aparine), were planted in pots containing the same blend of loam soil and sand and treated with postemergence applications of test chemicals formulated in the same manner. Plants ranged in height from 2 to 10 cm and were in the one- to two-leaf stage for the postemergence treatment. […] A dash (-) response means no test result.

kochia [2] = assay: Test A postemergence; type: in vivo, Kochia scoparia; conditions: 0 to 100 scale (0 no effect, 100 complete control), approx. 10 d
Source text: (§2) Seeds of plant species selected from barnyardgrass (Echinochloa crus-galli), crabgrass, large (large crabgrass, Digitaria sanguinalis), kochia (Kochia scoparia), ragweed (common ragweed, Ambrosia elatior), foxtail, giant (giant foxtail, Setaria faberii), morningglory (Ipomoea spp.), pigweed (Amaranthus retroflexus), velvetleaf (Abutilon theophrasti), ryegrass, Italian (Italian ryegrass, Lolium multiflorum), wheat (Triticum aestivum), and corn (Zea mays) were planted into a blend of loam soil and sand and treated preemergence with a directed soil spray using test chemicals formulated in a non-phytotoxic solvent mixture which included a surfactant.
(§3) At the same time, plants selected from these crop and weed species and also blackgrass (Alopecurus myosuroides), and galium (catchweed bedstraw, Galium aparine), were planted in pots containing the same blend of loam soil and sand and treated with postemergence applications of test chemicals formulated in the same manner. Plants ranged in height from 2 to 10 cm and were in the one- to two-leaf stage for the postemergence treatment. Treated plants and untreated controls were maintained in a greenhouse for approximately 10 d, after which time all treated plants were compared to untreated controls and visually evaluated for injury. Plant response ratings, summarized in Table A, are based on a 0 to 100 scale where 0 is no effect and 100 is complete control. A dash (-) response means no test result.

foxtail, giant [3] = assay: Test A preemergence; type: in vivo, Setaria faberii; conditions: 0 to 100 scale (0 no effect, 100 complete control)
Source text: as §1

wheat = assay: Test A postemergence; type: in vivo, Triticum aestivum; conditions: 0 to 100 scale (0 no effect, 100 complete control), approx. 10 d
Source text: as §1

ragweed [4] = assay: Test A postemergence; type: in vivo, Ambrosia elatior; conditions: 0 to 100 scale (0 no effect, 100 complete control), approx. 10 d
Source text: as §2, §3

galium = assay: Test A postemergence; type: in vivo, Galium aparine; conditions: 0 to 100 scale (0 no effect, 100 complete control), approx. 10 d
Source text: as §2, §3

ryegrass, Italian [5] = assay: Test A preemergence; type: in vivo, Lolium multiflorum; conditions: 0 to 100 scale (0 no effect, 100 complete control)
Source text: as §2, §3

ragweed [6] = assay: Test A preemergence; type: in vivo, Ambrosia elatior; conditions: 0 to 100 scale (0 no effect, 100 complete control)
Source text: as §2, §3

foxtail, giant [7] = assay: Test A postemergence; type: in vivo, Setaria faberii; conditions: 0 to 100 scale (0 no effect, 100 complete control), approx. 10 d
Source text: as §1

barnyardgrass [8] = assay: Test A preemergence; type: in vivo, Echinochloa crus-galli; conditions: 0 to 100 scale (0 no effect, 100 complete control)
Source text: as §1

blackgrass = assay: Test A postemergence; type: in vivo, Alopecurus myosuroides; conditions: 0 to 100 scale (0 no effect, 100 complete control), approx. 10 d
Source text: as §2, §3

ryegrass, Italian [9] = assay: Test A postemergence; type: in vivo, Lolium multiflorum; conditions: 0 to 100 scale (0 no effect, 100 complete control), approx. 10 d
Source text: as §2, §3

kochia [10] = assay: Test A preemergence; type: in vivo, Kochia scoparia; conditions: 0 to 100 scale (0 no effect, 100 complete control)
Source text: as §2, §3

pigweed [11] = assay: Test A postemergence; type: in vivo, Amaranthus retroflexus; conditions: 0 to 100 scale (0 no effect, 100 complete control), approx. 10 d
Source text: as §1

barnyardgrass [12] = assay: Test A postemergence; type: in vivo, Echinochloa crus-galli; conditions: 0 to 100 scale (0 no effect, 100 complete control), approx. 10 d
Source text: as §1

corn = assay: Test A postemergence; type: in vivo, Zea mays; conditions: 0 to 100 scale (0 no effect, 100 complete control), approx. 10 d
Source text: as §1

SMILES | Plant response rating, Pigweed (pigweed [1]; 31 g ai/ha) | Plant response rating, Pigweed (pigweed [1]; 125 g ai/ha) | Plant response rating, Kochia (kochia [2]; 31 g ai/ha) | Plant response rating, Kochia (kochia [2]; 125 g ai/ha) | Plant response rating, Foxtail, Giant (foxtail, giant [3]; 31 g ai/ha) | Plant response rating, Foxtail, Giant (foxtail, giant [3]; 125 g ai/ha) | Plant response rating, Wheat (wheat; 31 g ai/ha) | Plant response rating, Wheat (wheat; 125 g ai/ha) | Plant response rating, Ragweed (ragweed [4]; 31 g ai/ha) | Plant response rating, Ragweed (ragweed [4]; 125 g ai/ha) | Plant response rating, Galium (galium; 31 g ai/ha) | Plant response rating, Galium (galium; 125 g ai/ha) | Plant response rating, Ryegrass, Italian (ryegrass, Italian [5]; 31 g ai/ha) | Plant response rating, Ryegrass, Italian (ryegrass, Italian [5]; 125 g ai/ha) | Plant response rating, Ragweed (ragweed [6]; 31 g ai/ha) | Plant response rating, Ragweed (ragweed [6]; 125 g ai/ha) | Plant response rating, Foxtail, Giant (foxtail, giant [7]; 31 g ai/ha) | Plant response rating, Foxtail, Giant (foxtail, giant [7]; 125 g ai/ha) | Plant response rating, Barnyardgrass (barnyardgrass [8]; 31 g ai/ha) | Plant response rating, Barnyardgrass (barnyardgrass [8]; 125 g ai/ha) | also measured
CCCOc1nc(-c2ccc(C(F)(F)F)cc2)nn1Cc1ccnc(C(F)(F)F)c1 [Compound 41] | 90 | 90 | 70 | 90 | 70 | 90 | 0 | 20 | 50 | 70 | 60 | 90 | 20 | 40 | 20 | 30 | 30 | 50 | 30 | 40 | Plant response rating, Blackgrass (blackgrass; 31 g ai/ha): 20; Plant response rating, Blackgrass (blackgrass; 125 g ai/ha): 30; Plant response rating, Ryegrass, Italian (ryegrass, Italian [9]; 31 g ai/ha): 20; Plant response rating, Ryegrass, Italian (ryegrass, Italian [9]; 125 g ai/ha): 30; Plant response rating, Kochia (kochia [10]; 31 g ai/ha): 30; Plant response rating, Kochia (kochia [10]; 125 g ai/ha): 60; Plant response rating, Pigweed (pigweed [11]; 31 g ai/ha): 80; Plant response rating, Pigweed (pigweed [11]; 125 g ai/ha): 90; Plant response rating, Barnyardgrass (barnyardgrass [12]; 31 g ai/ha): 30; Plant response rating, Barnyardgrass (barnyardgrass [12]; 125 g ai/ha): 40; Plant response rating, Corn (corn; 31 g ai/ha): 20; Plant response rating, Corn (corn; 125 g ai/ha): 30
Cc1nc(-c2ccc(OC(F)(F)F)cc2)nn1Cc1ccnc(C(F)(F)F)c1 [Compound 37] | 10 | 20 | 20 | 70 | 0 | 0 | 0 | 0 | 0 | 0 | 0 | 20 | 0 | 0 | 0 | 0 | 0 | 0 | 0 | 0 | Plant response rating, Blackgrass (blackgrass; 31 g ai/ha): 0; Plant response rating, Blackgrass (blackgrass; 125 g ai/ha): 20; Plant response rating, Ryegrass, Italian (ryegrass, Italian [9]; 31 g ai/ha): 0; Plant response rating, Ryegrass, Italian (ryegrass, Italian [9]; 125 g ai/ha): 0; Plant response rating, Kochia (kochia [10]; 31 g ai/ha): 0; Plant response rating, Kochia (kochia [10]; 125 g ai/ha): 0; Plant response rating, Pigweed (pigweed [11]; 31 g ai/ha): 20; Plant response rating, Pigweed (pigweed [11]; 125 g ai/ha): 80; Plant response rating, Barnyardgrass (barnyardgrass [12]; 31 g ai/ha): 0; Plant response rating, Barnyardgrass (barnyardgrass [12]; 125 g ai/ha): 0; Plant response rating, Corn (corn; 31 g ai/ha): 10; Plant response rating, Corn (corn; 125 g ai/ha): 20
